Assay: Inhibitory activity against gastrin receptor

IC50 | SMILES
80 nM | CN1C(=O)[C@H](NC(=O)Nc2cccc(CC(=O)NCCC(=O)NCCSCc3csc(N=C(N)N)n3)c2)N=C(c2ccccc2)c2ccccc21 [N-[2-(2-Guanidino-thiazol-4-ylmethylsulfanyl)-ethyl]-3-(2-{3-[3-((R)-1-methyl-2-oxo-5-phenyl-2,3-dihydro-1H-benzo[e][1,4]diazepin-3-yl)-ureido]-phenyl}-acetylamino)-propionamide]
12 nM | Cc1cccc(NC(=O)NC2N=C(c3cccc(OCC(=O)NCC(=O)NCCSCc4csc(N=C(N)N)n4)c3)c3ccccc3N(C)C2=O)c1 (configuration not stated) [N-{[2-(2-Guanidino-thiazol-4-ylmethylsulfanyl)-ethylcarbamoyl]-methyl}-2-{3-[1-methyl-2-oxo-3-(3-m-tolyl-ureido)-2,3-dihydro-1H-benzo[e][1,4]diazepin-5-yl]-phenoxy}-acetamide]

— BindingDB's records for doi:10.1016/S0960-894X(96)00248-X (1996)
